This passage reports solubility and redissolubility results from patent publication US4866044A, “Solubilized composition of poorly-soluble pharmaceutical product” (Takeda Chemical Industries, Ltd., priority 1985, dated 1989).

A short description of data set [1]: physchem. The settings on record: water.
For data set [2] the following is noted: pH 6.

The term solubility denotes the dissolved amount per volume that the medium holds. In data set [1], `CCCCCCCCCCCCCCCCCCNC(=O)OCC(COP(=O)([O-])OCC[n+]1ccsc1)OC` (centres unmarked) [Compound [1], 3-(n-Octadecylcarbamoyloxy)-2-methoxypropyl 2-thiazolioethyl phosphate] displayed a solubility of around 100 mg/mL.
As for alanine, in data set [2], the redissolubility result is recorded as “O (key: O: dissolved within one minute; Δ: dissolved within one to three minutes)”.
